According to US11958871B2, “Inhibitors of bacterial glutaminyl cyclases for use in the treatment of periodontal and related diseases” (FRAUNHOFER-GESELLSCHAFT ZUR FÖRDERUNG DER ANGEWANDTEN …, priority 2018, dated 2024):
Where two headings read alike, the source gives them in different places.

Key:
Format in all cases: biochemical
[1] = test system: bacterial glutaminyl cyclases; assay: Inhibition of bacterial glutaminyl cyclases, summary statements
Description: (§1) For inhibitor testing, the sample composition was the same as described above, except for the addition of the putative inhibitory compound. […] Inhibitory constants were determined using different concentration of H-Gln-AMC varying from ¼ Km-2 Km. Final concentration of bacterial QC was in a range between 25 nM-50 nM.
(§2) The following compounds were synthesized as described in the Description of synthetic methods below. Average Ki values for the inhibition of PgQC (isolated and purified as described above), TfQC, PiQC and hQC were measured using the above inhibitor assay and are shown in. Ki refers to the average Ki values measured as described above, and Std(Ki) refers to the standard deviation of Ki.

hQC = hQC (Homo sapiens (Human), UniProt Q16769); assay: Inhibitor assay for glutaminyl cyclase activity (fluorometric, H-Gln-AMC), hQC
Description: (§3) QC activity was evaluated using H-Gln-AMC as the substrate (as previously described in Schilling et al., 2002).
(§4) The assay consists of varying concentration of the fluorogenic substrate and 0.5 U pyroglutaminyl aminopeptidase in 50 mM Tris-HCl, 50 mM NaCl at pH 8.0. After 10 minute incubation time at 30° C. reaction was initiated by addition of bacQC to a final volume of 125 μl reaction mixture. The excitation/emission wavelength was 380/460 nm. bacQC activity was determined from a standard curve of the fluorophore AMC under assay conditions. All determinations were carried out in 96 well microtiter plates (Fisher Scientific) at 30° C. using the FluoStar Optima (BMG Labtech).
as §1, §2

TfQC = TfQC (Tannerella forsythia, UniProt G8UMP8); assay: Inhibitor assay for bacterial glutaminyl cyclase activity (fluorometric, H-Gln-AMC), TfQC
Description: as §3, §4, §1, §2

PgQC = PgQC (Porphyromonas gingivalis, UniProt Q7MT37); assay: Inhibitor assay for bacterial glutaminyl cyclase activity (fluorometric, H-Gln-AMC), PgQC
Description: as §3, §4, §1
(∘) represents reaction without inhibitor. Determinations were carried out in 50 mM Tris-HCl, 50 mM NaCl pH 8.0 and 1% (v/v) DMSO at 30° C.
as §2

[2] = average Ki ± Std(Ki), read-out: hQC Ki
[3] = average Ki ± Std(Ki), read-out: TfQC Ki
[4] = average Ki ± Std(Ki), read-out: PgQC Ki

Sequence of hQC (Q16769 29-361): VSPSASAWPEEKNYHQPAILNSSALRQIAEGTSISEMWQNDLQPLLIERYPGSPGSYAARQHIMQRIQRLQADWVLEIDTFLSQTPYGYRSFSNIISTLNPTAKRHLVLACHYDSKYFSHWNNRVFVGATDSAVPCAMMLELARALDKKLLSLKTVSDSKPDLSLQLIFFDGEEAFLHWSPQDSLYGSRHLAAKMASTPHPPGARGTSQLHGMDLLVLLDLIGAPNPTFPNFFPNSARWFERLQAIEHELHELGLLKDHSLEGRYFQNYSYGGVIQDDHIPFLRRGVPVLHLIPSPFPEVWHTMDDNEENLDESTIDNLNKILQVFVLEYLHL
Sequence of PgQC (Q7MT37 22-333 limits assumed): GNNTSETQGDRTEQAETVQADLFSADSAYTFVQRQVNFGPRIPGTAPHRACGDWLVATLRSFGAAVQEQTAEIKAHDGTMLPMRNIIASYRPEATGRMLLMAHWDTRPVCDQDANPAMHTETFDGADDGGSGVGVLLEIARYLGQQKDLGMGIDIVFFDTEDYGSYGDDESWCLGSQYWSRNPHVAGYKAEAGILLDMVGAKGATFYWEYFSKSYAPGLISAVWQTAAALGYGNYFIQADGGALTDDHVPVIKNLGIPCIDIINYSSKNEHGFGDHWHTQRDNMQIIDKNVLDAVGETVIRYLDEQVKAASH
Sequence of TfQC (G8UMP8 20-333 limits assumed): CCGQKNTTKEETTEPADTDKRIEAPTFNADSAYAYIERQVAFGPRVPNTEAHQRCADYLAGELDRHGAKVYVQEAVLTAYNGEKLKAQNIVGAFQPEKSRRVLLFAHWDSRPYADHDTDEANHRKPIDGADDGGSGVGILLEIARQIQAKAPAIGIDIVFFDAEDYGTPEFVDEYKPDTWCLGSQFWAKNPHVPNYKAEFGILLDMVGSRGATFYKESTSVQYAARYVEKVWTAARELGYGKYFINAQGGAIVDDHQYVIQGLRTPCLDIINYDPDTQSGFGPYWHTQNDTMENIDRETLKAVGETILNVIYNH

| SMILES | Ki (PgQC; [4]) [nM] | further results |
| --- | --- | --- |
| c1ccc(CNc2ccc3nc[nH]c3n2)cc1 [Example 1, N-Benzylimidazo[4,5-b]pyridin-5-amine] | 1940 ± 318 | inhibitory activity against bacterial glutaminyl cyclases (in words) [1]: significant bacQC inhibitory activity and selectivity for PgQC over hQC; Ki (hQC; [2]): 8800 ± 127 nM; Ki (hQC; read-out: Ki, hQC (Table 5)): 8800 nM; Ki (TfQC; [3]): 8260 ± 361 nM; Ki (TfQC; read-out: Ki, TfQC (Table 5)): 8300 nM; Ki (PgQC; read-out: Ki, PgQC (Table 5)): 1950 nM |
| N=C(N)NCCOc1ccc(CNc2cnc3[nH]cnc3c2)cc1 [Example 17, 1-(2-(4-((Imidazo[4,5-b]pyridin-6-ylamino)methyl)-phenoxy)ethyl)guanidine] | 14 ± 0.1 | Ki (hQC; [2]): 455 ± 14 nM; Ki (TfQC; [3]): 123 ± 16 nM |
| CC(C)Oc1ccc(CNc2cnc3[nH]cnc3c2)cc1 [Example 18, N-[(4-Isopropoxyphenyl)methyl]-3H-imidazo[4,5-b]pyridin-6-amine] | 86 ± 5 | – |
| c1ccc(Oc2cccc(CNc3cnc4[nH]cnc4c3)c2)cc1 [Example 19, N-[(3-Phenoxyphenyl)methyl]-3H-imidazo[4,5-b]pyridin-6-amine] | 15 ± 0.1 | – |
| c1ccc(COc2ccc(CNc3cnc4[nH]cnc4c3)cc2)cc1 [Example 20, N-[(4-Benzyloxyphenyl)methyl]-3H-imidazo[4,5-b]pyridin-6-amine] | 42 ± 4 | – |
| c1ccc(-c2ccc(CNc3cnc4[nH]cnc4c3)cc2)cc1 [Example 21, N-[(4-Biphenyl)methyl]-3H-imidazo[4,5-b]pyridin-6-amine] | 19 ± 1 | – |
| COc1cc(F)c(CNc2cnc3[nH]cnc3c2)c(F)c1 [Example 22, N-[(2,6-Difluoro-4-methoxy-phenyl)methyl]-3H-imidazo[4,5-b]pyridin-6-amine] | 30 ± 1 | – |
| COc1cc(CNc2cnc3[nH]cnc3c2)cc2c1OCO2 [Example 23, N-[(7-Methoxy-1,3-benzodioxol-5-yl)methyl]-3H-imidazo-[4,5-b]pyridin-6-amine] | 65 ± 13 | – |
| FC1(F)Oc2ccc(CNc3cnc4[nH]cnc4c3)cc2O1 [Example 24, N-[(2,2-Difluoro-1,3-benzodioxol-5-yl)methyl]-3H-imidazo-[4,5-b]pyridin-6-amine] | 67 ± 1 | – |
| c1ccc(-c2ccc(CNc3cnc4[nH]cnc4c3)cc2)nc1 [Example 25, N-[[4-(2-Pyridyl)phenyl]methyl]-3H-imidazo[4,5-b]pyridin-6-amine] | 38 ± 3 | – |
| c1nc2cc(NCc3ccc(OCCN4CCOCC4)cc3)cnc2[nH]1 [Example 26, N-[[4-(2-Morpholinoethoxy)phenyl]methyl]-3H-imidazo[4,5-b]pyridin-6-amine] | 33 ± 1 | – |
| c1nc2cc(NCc3ccc(N4CCOCC4)cc3)cnc2[nH]1 [Example 27, N-[(4-morpholinophenyl)methyl]-3H-imidazo[4,5-b]pyridin-6-amine] | 60 ± 2 | – |
| O=C(c1cc(Cl)cc(Cl)c1)N1CCc2[nH]cnc2C1 [MWT-S-00431, (3,5-dichlorophenyl-1,4,6,7-tetrahydro-5H-imidazo[4,5-c]pyridin-5-yl)methanone, reference compound] | – | Ki (PgQC; 50 mM Tris-HCl, 50 mM NaCl pH 8.0, 1% (v/v) DMSO, 30° C., read-out: Ki, inhibition of the conversion of H-Gln-AMC by PgQC): 104 nM |
